ChEMBL document CHEMBL3588818 (Eur J Med Chem, 2015)

How the values were obtained:
[1] = molecular target: T1, Vesicular acetylcholine transporter (Rattus norvegicus, UniProt Q62666); assay: Displacement of (-)-[3H]vesamicol from rat VAChT expressed in PC12 cell membranes incubated for 2 hrs by liquid scintillation counting based competitive radioligand binding assay; parameters: species or system PC-12; settings: read-out: Ki(app)
T1 sequence (Q62666 whole entry): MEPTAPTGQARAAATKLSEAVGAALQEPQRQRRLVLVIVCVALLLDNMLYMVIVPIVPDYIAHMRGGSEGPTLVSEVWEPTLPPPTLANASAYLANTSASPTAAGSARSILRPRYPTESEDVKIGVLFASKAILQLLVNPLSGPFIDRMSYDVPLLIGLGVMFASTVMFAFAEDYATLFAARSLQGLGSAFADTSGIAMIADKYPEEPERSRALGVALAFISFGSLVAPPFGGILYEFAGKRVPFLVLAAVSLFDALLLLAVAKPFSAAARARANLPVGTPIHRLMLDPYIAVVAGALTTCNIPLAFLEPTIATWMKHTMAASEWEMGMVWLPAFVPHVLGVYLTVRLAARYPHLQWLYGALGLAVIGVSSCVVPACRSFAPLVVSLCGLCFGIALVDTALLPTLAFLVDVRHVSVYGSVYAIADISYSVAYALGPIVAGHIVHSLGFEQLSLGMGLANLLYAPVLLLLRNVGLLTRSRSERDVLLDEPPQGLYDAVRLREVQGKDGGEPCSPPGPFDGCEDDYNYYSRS

[2] = molecular target: Sigma non-opioid intracellular receptor 1 (Rattus norvegicus, UniProt Q9R0C9); assay: Displacement of […] from sigma1 receptor in Sprague-Dawley rat cortical membranes incubated for 2 hrs by liquid scintillation counting based competitive radioligand binding assay; settings: read-out: Ki(app)
Sequence of Sigma non-opioid intracellular receptor 1 (Q9R0C9 whole entry): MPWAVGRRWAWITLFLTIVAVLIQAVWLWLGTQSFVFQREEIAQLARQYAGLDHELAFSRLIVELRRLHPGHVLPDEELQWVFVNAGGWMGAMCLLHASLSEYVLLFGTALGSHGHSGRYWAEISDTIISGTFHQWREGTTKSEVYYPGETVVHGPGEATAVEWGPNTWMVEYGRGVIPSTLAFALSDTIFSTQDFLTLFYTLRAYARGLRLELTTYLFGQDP

[3] = Displacement of [3H]DTG from sigma2 receptor in Sprague-Dawley rat liver membranes incubated for 2 hrs in presence of dextrallorphan by liquid scintillation counting based competitive radioligand binding assay; settings: read-out: Ki(app)
PC-12 [4] = assay: Selectivity index, ratio of Ki for sigma1 receptor in Sprague-Dawley rat cortical membranes to Ki for rat VAChT expressed in PC12 cell membranes; type: cell-based
PC-12 [5] = assay: Selectivity index, ratio of Ki for sigma2 receptor in Sprague-Dawley rat liver membranes to Ki for rat VAChT expressed in PC12 cell membranes; type: cell-based
[6] = molecular target: T2, Vesicular acetylcholine transporter (Torpedo californica, UniProt P81721); assay: Displacement of (-)-[3H]vesamicol from VAChT in Torpedo californica electric organ synaptic vesicles; parameters: species or system Tetronarce californica; settings: read-out: Ki(app)
T2 sequence (P81721 whole entry): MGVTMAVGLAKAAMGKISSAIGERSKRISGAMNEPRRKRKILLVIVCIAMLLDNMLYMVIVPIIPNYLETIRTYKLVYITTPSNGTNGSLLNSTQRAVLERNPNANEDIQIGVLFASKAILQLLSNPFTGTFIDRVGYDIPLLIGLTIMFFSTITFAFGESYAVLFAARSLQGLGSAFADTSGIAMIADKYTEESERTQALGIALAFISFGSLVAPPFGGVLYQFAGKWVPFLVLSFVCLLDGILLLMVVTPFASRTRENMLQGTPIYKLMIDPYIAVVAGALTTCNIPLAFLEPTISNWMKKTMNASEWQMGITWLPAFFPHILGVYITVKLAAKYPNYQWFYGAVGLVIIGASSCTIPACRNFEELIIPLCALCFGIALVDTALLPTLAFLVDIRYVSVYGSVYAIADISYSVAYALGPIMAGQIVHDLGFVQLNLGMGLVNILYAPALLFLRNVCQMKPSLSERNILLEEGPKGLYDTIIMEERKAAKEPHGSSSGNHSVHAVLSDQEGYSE

SMILES	Ki [1]	Ki [2]	Ki [3]	Ratio Ki (PC-12 [4])	Ratio Ki (PC-12 [5])	Ki [6]
O=C(c1ccc(F)cc1)C1CCN([C@@H]2CCCC[C@H]2O)CC1 (racemic)	3240 nM	60.9 nM	730 nM	< 0.1	0.2	
O[C@@H]1CC=CC[C@H]1N1CCC(c2ccccc2)CC1 (racemic)	18.4 nM	5.8 nM	77.1 nM	0.3	4.2	0.34 nM
O=C(Nc1cccc2c1C[C@@H](N1CCC(c3ccccc3)CC1)[C@H](O)C2)c1ccc(F)cc1 (racemic)	156 nM	6430 nM	3620 nM	41.2	23.2	
O=C(Nc1cccc2c1C[C@@H](N1CCC(Cc3ccccc3)CC1)[C@H](O)C2)c1ccc(F)cc1 (racemic)	527 nM	1770 nM	2080 nM	3.4	3.9	
O=C(Nc1cccc2c1C[C@@H](O)[C@H](N1CCC(c3ccccc3)CC1)C2)c1ccc(F)cc1 (racemic)	188 nM	626 nM	1380 nM	3.3	2.2	
O[C@@H]1CCCC[C@H]1N1CCC(O)(c2ccccc2)CC1 (racemic)	1000 nM	454 nM	1990 nM	0.4	1.9	
CC(=O)C1(c2ccccc2)CCN([C@@H]2CCCC[C@H]2O)CC1 (racemic)	1460 nM	22.5 nM	164 nM	< 0.1	0.1	
O[C@@H]1CCCC[C@H]1N1CCC(c2ccccc2)(c2ccccc2)CC1 (racemic)	6710 nM	43.2 nM	1830 nM	< 0.1	0.3	
O[C@@H]1CCCC[C@H]1N1CCC(Cc2ccccc2)CC1 (racemic)	647 nM	20.1 nM	108 nM	< 0.1	0.2	
O[C@@H]1CC[C@@H](OCc2ccc(F)cc2)C[C@H]1N1CCC(c2ccccc2)CC1 (racemic)	25.1 nM	16.6 nM	53.1 nM	0.7	2.1	
O[C@@H]1CC[C@@H](OCc2ccc(F)cc2)C[C@H]1N1CCN(c2ccccc2)CC1 (racemic)	697 nM	103 nM	167 nM	0.2	0.24	
O[C@@H]1CC[C@@H](OCc2ccc(F)cc2)C[C@H]1N1CC=C(c2ccccc2)CC1 (racemic)	310 nM	29.9 nM	46.9 nM	< 0.1	0.2	
O[C@@H]1CCCC[C@H]1N1CCN(c2ccccc2)CC1 (racemic)	838 nM	83.9 nM	695 nM	0.1	0.8	
O[C@@H]1CCCC[C@H]1N1CC=C(c2ccccc2)CC1 (racemic)	439 nM	9.7 nM	158 nM	< 0.1	0.4	
O=C(c1ccc(F)cc1)C1CCN([C@@H]2Cc3ccccc3C[C@H]2O)CC1 (racemic)	24.4 nM	215 nM	284 nM	8.8	1.6	2.7 nM
Nc1cccc2c1C[C@@H](N1CCC(c3ccccc3)CC1)[C@H](O)C2 (racemic)	25.1 nM	119 nM	474 nM	4.7	18.9	0.013 nM
